In this experiment the test system is CEM cells HIV-1 protection, formazan growth assay. Briefly: NCI AIDS Antiviral Assay. The following applies: for IC50: measured here: growth of uninfected CEM cells. The gist of the method:
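Human CEM cells, uninfected and HIV-1-infected, received five drug concentrations, and growth was read by soluble formazan assay. Compounds giving at least 50% protection were retested; reproducible 100% protection defined confirmed active.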

The record followed here is PubChem BioAssay AID179 (DTP/NCI, 2004).

For orientation: EC50 means the concentration needed to bring the measured effect to its halfway point. Usually IC50 stands for the concentration needed to halve the response being measured.

The source made the active and inactive calls.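 How the source made its calls: active means compounds giving half or more protection of infected cells from virus-caused growth loss, again on retest; inactive means the rest.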 Where a SMILES comes first, the peptide text is derived from it.

With `CC(NC(=O)CNC(=O)C(N)CO)C(=O)NC(CCC(N)=O)C(=O)NC(CCC(=O)O)C(=O)NC(C)C(=O)NC(CCC(=O)O)C(=O)NC(CCCCN)C(=O)NC(CCC(N)=O)C(=O)NC(CCCN=C(N)N)C(=O)NC(C(=O)NC(CC(N)=O)C(=O)NC(C)C(=O)NC(Cc1cnc[nH]1)C(=O)NC(CO)C(=O)O)C(C)O` (configuration not stated) (H-SGAQEAEKQRTNAHS-OH; configuration not given here), the EC50 was greater than 100 µM and the IC50 was greater than 100 µM.
For `O=c1[nH]c2[nH]c(-c3ccc(Br)cc3)cc2c2ccccc12`, the EC50 is greater than 200 µM and the IC50 is greater than 200 µM.
For `CC1(C)C=C(/C=N/Nc2ccc([N+](=O)[O-])cc2)C(C#N)=C(O)C1(C#N)C#N`, the EC50 is greater than 200 µM and the 50% inhibitory concentration (IC50) is 53.7 µM.
With `COc1ccc(/C=C/C(=O)c2ccccc(=O)c2O)cc1`, the EC50 was greater than 63.1 µM and the IC50 was determined as 3.39 µM.
Consider `N#CC(C(=N/O)/C(=N/O)C(C#N)c1ccc(Cl)cc1)c1ccc(Cl)cc1` (configuration not stated), for which the EC50 is greater than 468 µM and the half-maximal inhibitory concentration (IC50) stood at 178 µM.
For the compound `O=C(/C(=N/Nc1ccc([N+](=O)[O-])cc1)c1ccccc1)c1ccccc1`, the result was inactive.
On to `O=C1/C(=C/c2ccc(F)cc2)CCC/C1=C\c1ccc(F)cc1`, for which the EC50 is greater than 23.4 µM and the IC50 was greater than 23.4 µM.
As for `COP(=O)(OC)/C(=C\C1=CN(C(c2ccccc2)(c2ccccc2)c2ccccc2)CN1)NC=O`, the EC50 is greater than 200 µM and the IC50 is 21.4 µM.
The matching figures for `C[N+](C)(C)CC(=O)N/N=C(/Cc1nc2ccc([N+](=O)[O-])cc2[nH]c1=O)C(=O)Nc1cc(C(F)(F)F)ccc1Cl`: greater than 295 µM and 120 µM.
For `Cc1cc(C)c(P2C(=C(O[Si](C(C)C)(C(C)C)C(C)C)C(C)(C)C)C2(c2ccccc2)c2ccccc2)c(C)c1` (configuration not stated), in that order: greater than 100 µM and greater than 100 µM.
For `CN(C)COC(=S)SC(=O)OCCCl`, the EC50 was greater than 200 µM and the half-maximal inhibitory concentration (IC50) is greater than 200 µM.
Take `CCc1nn(Cc2ccccc2)c2nc(C)c(CCc3ccccc3)c(Cl)c12`: the EC50 was greater than 200 µM and the 50% inhibitory concentration (IC50) is greater than 200 µM.
In the case of `COc1ccc2ccccc2c1CN1CCOCCOCCN(Cc2c(OC)ccc3ccccc23)CCOCCOCC1`, the EC50 is greater than 8.71 µM and the IC50 was 4.9 µM.
Take `CCn1cc(C(=O)O)c(=O)c2ccc(C)nc21`: the outcome was inactive.
With `O=C(Nc1cccc(Cl)c1)C(=O)C(C(=O)c1ccc2ccccc2c1)C1OC(=O)c2ccccc21` (configuration not stated), the EC50 is greater than 74.1 µM and the half-maximal inhibitory concentration (IC50) amounted to 33.9 µM.
Regarding `Clc1ccc(C(c2ccc(Cl)cc2)c2cncnc2)cc1`, the result was inactive.
Consider `O=C(O)C1[C@@H](C(=O)O)C1(Br)CBr` (some centres not stated), for which the EC50 is greater than 200 µM and the half-maximal inhibitory concentration (IC50) is greater than 200 µM.
Consider `Cc1c2c(c(C)c3c1C(=O)c1cc4c(cc1C3=O)OCO4)OCO2`, for which the EC50 is greater than 200 µM and the IC50 is greater than 200 µM.
For the compound `COc1cc2nncc(SC)c2cc1OC`, the EC50 is greater than 91.2 µM and the half-inhibitory concentration (IC50) stood at 72.4 µM.
The matching figures for `COP12(OC)NC(=O)OC1(C(F)(F)F)c1ccccc1O2` (configuration not stated): greater than 776 µM and 537 µM.
As to `C=CC1CN2CCC1C/C2=N\O` (configuration not stated), the outcome was inactive.
Consider `O=C(Nc1ccc(Cl)cc1Cl)C1C(=O)N(c2ccc(Cl)cc2Cl)C(=O)/C1=N\Nc1ccc([N+](=O)[O-])cc1[N+](=O)[O-]` (configuration not stated), for which the EC50 was greater than 1.66 µM and the IC50 is greater than 1.66 µM.
As to `OC1CN2CCC[C@@H](O)[C@@H]2C1O` (some centres not stated), the EC50 is greater than 200 µM and the IC50 was greater than 200 µM.
Take `N#Cc1cccc(/C=C2\CCc3ccccc3C2=O)c1`: the EC50 is greater than 28.2 µM and the IC50 worked out at 20.9 µM.
For `COc1cccc(-c2nc(-c3cnccn3)n(C3OC(CO)C(O)C(O)C3O)n2)c1` (configuration not stated), in that order: greater than 200 µM and greater than 200 µM.
Turning to `Cn1c(=O)c2nsnc2n(C)c1=O`, the EC50 is greater than 661 µM and the half-maximal inhibitory concentration (IC50) is greater than 661 µM.
On to `O=C(NCCN(CCNC(=O)c1cccc(=O)n1O)CCN(CCNC(=O)c1cccc(=O)n1O)CCNC(=O)c1cccc(=O)n1O)c1cccc(=O)n1O`, for which the EC50 is greater than 200 µM and the IC50 is greater than 200 µM.
On to `CC(C)CC(NC(=O)C(Cc1ccc(O)cc1)NC(=O)C(C)N)C(=O)NCC(=O)NC(CCCCN)C(=O)NC(CCCCN)C(=O)NC(C(=O)NC(C)C(=O)NC(C(=O)NC(CC(=O)O)C(=O)O)C(C)O)C(C)C` (configuration not stated) (H-AYLGKKVATD-OH; configuration not given here), for which the result was inactive.
On to `O=C(O)CCCCCCCc1cccc(OCCOCCO)c1`, for which the EC50 was greater than 100 µM and the half-maximal inhibitory concentration (IC50) is greater than 100 µM.
In the case of `O=[N+]([O-])c1ccccc1S(=O)(=O)c1cc(Cl)cc2c1NCCC2`, the EC50 is greater than 151 µM and the 50% inhibitory concentration (IC50) amounted to 28.8 µM.
For `O=c1cc2c(=O)oc3cc(O)c(O)oc3c2c(O)c1O`, in that order: greater than 324 µM and 13.8 µM.
For `O=C1CN(S(=O)(=O)c2ccc([N+](=O)[O-])cc2)CC(=O)CN(S(=O)(=O)c2ccc([N+](=O)[O-])cc2)CC(=O)CN(S(=O)(=O)c2ccc([N+](=O)[O-])cc2)C1`, in that order: greater than 200 µM and greater than 200 µM.
The matching figures for `CCSCCCCCCCCCCC(=O)OCC1OC(n2cc(C)c(=O)[nH]c2=O)CC1N=[N+]=[N-]` (configuration not stated): 0.0479 µM and 49 µM.
For `COc1ccccc1N1C(=O)CSC1c1c[nH]c2ccccc12` (configuration not stated), the EC50 was greater than 288 µM and the half-maximal inhibitory concentration (IC50) was found to be 186 µM.
The matching figures for `CC(NC(=O)OC(C)(C)C)C(=O)NC1CCCC1` (configuration not stated): greater than 200 µM and greater than 200 µM.
As to `CCOC(=O)c1c(N2CCCC2)[nH]c(=O)c(C(c2cccs2)c2c(O)c(C(=O)OCC)c(N3CCCC3)[nH]c2=O)c1O`, the EC50 is greater than 200 µM and the IC50 was determined as 141 µM.
For `O=C(O)C1CC2C3C=CC(C3)C2C1` (configuration not stated) (tested in a mixture with another compound), in that order: greater than 64.6 µM and 45.7 µM.
The matching figures for `CCN(CC)CCCNC(=O)c1ccccc1Nc1c(Cl)cccc1Cl`: greater than 200 µM and 6.76 µM.
In the case of `CCc1ccccc1N1CCN(C(=O)c2cc(OC)c(OC)c(OC)c2)CC1`, the EC50 is greater than 93.3 µM and the concentration for half-maximal inhibition (IC50) was 0.0295 µM.
Regarding `CCOP(=S)(N/N=C1/CCCC(C)C1)OCC` (configuration not stated), the EC50 was greater than 200 µM and the IC50 stood at 102 µM.
Consider `NC(N)=NS(=O)(=O)c1ccc(NC(=O)c2cccn3c(=O)c4ccccc4nc23)cc1`, for which the result was inactive.
On to `COC(=S)C12CC3CC(CC(C3)C1)C2`, for which the outcome was inactive.
Take `Nc1[nH]c(=S)c2c(N)n[nH]c2c1C(=O)Nc1ccc(Cl)cc1`: the EC50 is greater than 200 µM and the IC50 was 1.55 µM.
The matching figures for `CC(C)N1CCOC12CCCC2`: greater than 200 µM and 29.5 µM.
Regarding `O=C1C2c3[nH]c4ccccc4c3[C@@H]3CCCCC3C2C(=O)N1c1ccccc1` (some centres not stated), the outcome was inactive.
In the case of `Cn1cc(NC(=O)[C@H]2CCC(N)=N2)cc1C(=O)NCCC(=N)N`, the result was inactive.
Take `CCOC(=O)N(C)C1(c2ccccc2)CCN(CCCC(=O)c2ccc(F)cc2)CC1`: the EC50 was greater than 200 µM and the IC50 came out at 83.2 µM.
With `COC(=O)C(N=O)C(=O)OC`, the result was inactive.
For the compound `O=C(CP(=O)(c1ccccc1)c1ccccc1)c1cccc(C(=O)CP(=O)(c2ccccc2)c2ccccc2)c1`, the EC50 is greater than 200 µM and the IC50 is 158 µM.
The matching figures for `N#Cc1sc2nc(/C=C3/C=CC=CC3=O)c(O)n2c1N`: greater than 200 µM and 93.3 µM.
The matching figures for `N#Cc1c(-c2ccccc2)c(-c2ccccc2)nn(CC(=O)O)c1=O`: greater than 759 µM and 47.9 µM.
In the case of `COC(=O)/C=C/C(=O)CC(O)COC(=O)c1ccccc1` (configuration not stated), the EC50 was greater than 85.1 µM and the half-maximal inhibitory concentration (IC50) worked out at 2.09 µM.
Turning to `CN(/N=C(\C(=O)O)c1ccccc1)C1=NCCCN1`, the EC50 was greater than 200 µM and the IC50 is greater than 200 µM.
On to `CCC12CCCNC1c1c(n(C)c3ccccc13)C(C(=O)OC)C2` (configuration not stated), for which the EC50 is greater than 37.2 µM and the IC50 came out at 34.7 µM.
Turning to `N#CC(C(=O)CCCC(=O)Nc1ccc(Cl)cc1Cl)c1ccc(Cl)cc1` (configuration not stated), the result was inactive.
On to `CC1C2Cc3ccc(O)cc3C1(C)CCN2C` (configuration not stated), for which the EC50 was greater than 129 µM and the IC50 is greater than 129 µM.
For the compound `O=C1Oc2ccccc2C(=O)/C1=C/N1C(=O)CNC1=S`, the EC50 is greater than 200 µM and the IC50 is greater than 200 µM.
On to `NNC(=S)N/N=C(/C(=O)Nc1ccc(Cl)c(Cl)c1)C(C1OC(=O)c2ccccc21)[N+](=O)[O-]` (configuration not stated), for which the EC50 is greater than 501 µM and the 50% inhibitory concentration (IC50) was 257 µM.
For `C=CCCCN1C(=O)C2C3c4ccccc4C(C=O)(c4ccccc43)C2C1=O` (configuration not stated), in that order: greater than 200 µM and 7.24 µM.
`CO/C(=N\N=C\c1ccc(Cl)cc1Cl)c1ccncc1`: the EC50 was greater than 21.9 µM and the IC50 is greater than 21.9 µM.
Take `CCOC(=O)c1cc(-c2ccc(Cl)cc2)c([N+](=O)[O-])n1C`: the EC50 was greater than 200 µM and the IC50 worked out at 26.9 µM.
Take `S=C(NCc1ccccc1)N/N=C/c1ccccn1`: the EC50 was greater than 20 µM and the half-inhibitory concentration (IC50) amounted to 0.141 µM.
The matching figures for `O=C(CN1C(=O)c2cccc3c(Br)ccc(c23)C1=O)c1ccc(F)cc1`: greater than 200 µM and 52.5 µM.
Turning to `O=S(Cc1ccc2c(c1)OCO2)c1ccccc1` (configuration not stated), the EC50 is greater than 955 µM and the half-inhibitory concentration (IC50) is 661 µM.
As for `O=c1c2cc(Br)ccc2[nH]c(=S)n1-c1ccccc1`, the EC50 was greater than 40.7 µM and the concentration for half-maximal inhibition (IC50) was greater than 40.7 µM.
With `N#C/C(=C/N1C(=O)/C(=C/c2ccc([N+](=O)[O-])cc2)SC1=S)c1nc2ccccc2s1`, the EC50 was greater than 200 µM and the IC50 was found to be 15.5 µM.
`Cc1ccc(-n2c(=S)[nH]c3ccc(C)cc3c2=O)cc1`: the EC50 is greater than 25.7 µM and the IC50 was greater than 25.7 µM.
For `Cc1coc2c1[C@@H](O)[C@]1(C)[C@@H](C)CC[C@H](O)[C@]1(O)C2`, the EC50 was greater than 200 µM and the concentration for half-maximal inhibition (IC50) is greater than 200 µM.
In the case of `CCc1nnc(-c2nsc3ccccc23)s1`, the EC50 is greater than 145 µM and the IC50 turned out to be 126 µM.
